Like-named read-outs stand apart in the source and are kept apart here. Marks after values point to notes of the source that are not given here.
How the values were obtained:
in vivo [1] = conditions: both, New Zealand albino, rabbit; for Tmax: CCSDD group, 0.3 ml (5 mg/ml) DEXP then 0.1 ml/h for 10 h
Experimental: (§1) Male and female New Zealand albino rabbits (about four months old and weighing 2.0–2.5 kg) were acquired from the Third Xiangya Hospital of Central South University (Changsha, China). All rabbits were examined thoroughly, and no ocular disease, then were randomly allocated to different groups for subsequent ocular PK studies. Animals were anesthetized by intramuscularly injecting Xylazine Hydrochloride Injection (2 ml:0.2 g, Huamu Animal Health Products Co., Jilin, 0.1–0.2 ml/kg) and dropped Oxybuprocaine Hydrochloride Eye Drops (20 ml:80 mg, Sa) three times, interval 2 min per time.
(§2) Rabbits were randomly divided into three groups and six rabbits for each group per time point. […] After the last instillation in IV group (1 h, 3 h, 6 h, 12 h, 24 h) and SC injection group (1 h, 2 h, 3 h, 4 h, 6 h, 8 h, 12 h, 24 h), respectively, the ocular tissue were collected. […] Animals were euthanized by 3 ml lidocaine (3 ml/rabbit) and 3 ml air intravenously, immediately after death, ocular tissues were collected. Vitreous, choroid/retina and sclera were dissected and weighted as the solid tissues, the samples were stored at −20 °C and then processed for analysis.
(§3) Frozen rabbit samples were thawed at ambient temperature, the solid samples were fixed with 400 ml 0.9% normal saline (NS) and homogenized. A 100 μl aliquot of Triamcinolone diacetate (I.S. 200 ng/ml) standard solution was added to 100 μl of each fluid sample and 400 μl 0.9% NS or homogenized samples. After a thorough vortex mixing for 30 s, the mixture was extracted with 1 ml n-hexane and acetate ester (1:1, v/v) for 60 min, the mixture was centrifuged at 14 000 rpm for 5 min. The organic layer was removed and evaporated under a gentle stream nitrogen gas at 45 °C until it was completely dry. The dried residue was dissolved with 50 μl mobile phase. After centrifugation, 5 μl of the clear supernatant was injected into the LC–MS system: LC-10AD VP low pressure gradient pump, CTO-10A VP column temperature oven, SCL-10AD VP system controller, and LC-MS chemstation. Separation was achieved on a Thermo Hypersil-Hypurity C18 column (150 mm × 2.1 mm, i.d., 5 μm, USA) at 40 °C. […] The operating parameters of ESI–MS (electrospray ionization–mass spectrometry) were as follows: capillary voltage was 4.5 kV; nebulizer nitrogen gas flow-rate was 1.5 l/min; drying N2 flow was 10 l/min; drying gas temperature was 250 °C, the gas used was of high purity, and system control and data evaluation were carried out using LC-MS chemstation (Japan). […] Quantitation was performed by a linear regression analysis of peak areas ratio from a standard curve containing seven standard points.
(§4) The following pharmacokinetic parameters were obtained: peak concentration (Cmax), time to peak concentration (Tmax), elimination half-life (T1/2), area under the concentration–time curve between 0 and 24 h (AUC0–24).
(§5) Tissue concentrations were analyzed using one-way analysis of variance (ANOVA). If there were differences in three groups, we used Dunnett T3 to analyze two groups. All other results were descriptive measures. Statistical significance was accepted at a level of p < 0.05.

[2] = for dexamethasone concentration, Choroidal/retinal compound / dexamethasone concentration, Sclera / dexamethasone concentration, Vitreum: CCSDD: first dose 0.3 ml (5 mg/ml) DEXP, then 0.1 ml/h for 10 h, mean ± SD, n=6
Experimental: as §1, §2, §3, §4, §5

[3] = for dexamethasone concentration, Choroidal/retinal compound / dexamethasone concentration, Sclera / dexamethasone concentration, Vitreum: IV: intravenous injection of 1 mg/kg DEXP, mean ± SD, n=6
Experimental: as §1, §2, §3, §4, §5

in vivo [4] = conditions: both, New Zealand albino, rabbit, iv, 1 mg/kg
Experimental: as §1, §2, §3, §4, §5

[5] = SC: subconjunctival injection of 0.3 ml (5 mg/ml) DEXP, mean ± SD, n=6
Experimental: as §1, §2, §3, §4, §5

Question: Which results are given for C[C@@H]1C[C@H]2[C@@H]3CCC4=CC(=O)C=C[C@]4(C)[C@@]3(F)[C@@H](O)C[C@]2(C)[C@@]1(O)C(=O)CO [dexamethasone]?
Answer: Cmax (in vivo [1]; choroid/retina): 3220 ng/g; Cmax (in vivo [1]; in vivo, topical or ocular, 6.5 mg): 71 ng/mL; Tmax (in vivo [1]; in vivo, topical or ocular, 6.5 mg, Choroidal/retinal compound): 3 h; Tmax (in vivo [1]; in vivo, topical or ocular, 6.5 mg, Sclera): 1 h; Tmax (in vivo [1]; in vivo, topical or ocular, 6.5 mg, Vitreum): 1 h; Cmax (in vivo [1]; sclera): 11200 ng/g; AUC(0-t) (in vivo [1]; vitreous, topical or ocular, 6.5 mg): 1410 ng·h/mL; AUC0–24, choroid/retinal compound ([2]; CCSDD administration, rabbit): 41400.70 ng·h/g; AUC0–24, sclera ([2]; CCSDD administration, rabbit): 93577.80 ng·h/g; dexamethasone concentration, Choroidal/retinal compound ([2]; 1 h after first dose): 2522.46 ± 425.94; dexamethasone concentration, Sclera ([2]; 1 h after first dose): 11192.22 ± 5302.51; dexamethasone concentration, Vitreum ([2]; 1 h after first dose): 71.05 ± 30.23; dexamethasone concentration, Choroidal/retinal compound ([2]; 3 h after first dose): 3291.35 ± 438.11; dexamethasone concentration, Sclera ([2]; 3 h after first dose): 9785.20 ± 1964.12; dexamethasone concentration, Vitreum ([2]; 3 h after first dose): 57.23 ± 12.34; dexamethasone concentration, Choroidal/retinal compound ([2]; 6 h after first dose): 2331.09 ± 454.41; dexamethasone concentration, Sclera ([2]; 6 h after first dose): 6215.17 ± 1871.83; dexamethasone concentration, Vitreum ([2]; 6 h after first dose): 50.23 ± 13.77; dexamethasone concentration, Choroidal/retinal compound ([2]; 10 h after first dose): 1796.19 ± 380.36; dexamethasone concentration, Sclera ([2]; 10 h after first dose): 4053.03 ± 1330.47; dexamethasone concentration, Vitreum ([2]; 10 h after first dose): 50.51 ± 8.40; dexamethasone concentration, Choroidal/retinal compound ([2]; 11 h after first dose): 1518.52 ± 332.81; dexamethasone concentration, Sclera ([2]; 11 h after first dose): 3857.47 ± 1508.05; dexamethasone concentration, Vitreum ([2]; 11 h after first dose): 42.84 ± 6.24; dexamethasone concentration, Choroidal/retinal compound ([2]; 12 h after first dose): 1191.62 ± 303.29; dexamethasone concentration, Sclera ([2]; 12 h after first dose): 1913.73 ± 389.28; dexamethasone concentration, Vitreum ([2]; 12 h after first dose): 33.52 ± 5.31; dexamethasone concentration, Choroidal/retinal compound ([2]; 16 h after first dose): 988.97 ± 336.43; dexamethasone concentration, Sclera ([2]; 16 h after first dose): 1215.48 ± 449.07; dexamethasone concentration, Choroidal/retinal compound ([2]; 20 h after first dose): 812.90 ± 188.26; dexamethasone concentration, Sclera ([2]; 20 h after first dose): 906.40 ± 312.84; dexamethasone concentration, Vitreum ([2]; 20 h after first dose): 27.78 ± 3.26; dexamethasone concentration, Choroidal/retinal compound ([2]; 24 h after first dose): 418.20 ± 97.81; dexamethasone concentration, Sclera ([2]; 24 h after first dose): 484.52 ± 155.25; dexamethasone concentration, Vitreum ([2]; 24 h after first dose): 22.40 ± 4.38; AUC0–24, choroid/retinal compound ([3]; IV route, rabbit): 1571.71 ng·h/g; AUC0–24, sclera ([3]; IV route, rabbit): 2858.71 ng·h/g; dexamethasone concentration, Choroidal/retinal compound ([3]; 1 h): 140.57 ± 34.56^a; dexamethasone concentration, Sclera ([3]; 1 h): 281.42 ± 60.13^a; dexamethasone concentration, Vitreum ([3]; 1 h): 43.78 ± 2.62; dexamethasone concentration, Sclera ([3]; 3 h): 402.99 ± 96.49^a; dexamethasone concentration, Vitreum ([3]; 3 h): 30.08 ± 2.55^a; dexamethasone concentration, Choroidal/retinal compound ([3]; 6 h): 90.75 ± 12.08^a; dexamethasone concentration, Sclera ([3]; 6 h): 141.57 ± 31.46^a; dexamethasone concentration, Vitreum ([3]; 6 h): 21.53 ± 2.66^a; dexamethasone concentration, Choroidal/retinal compound ([3]; 12 h): 38.94 ± 13.00^a; dexamethasone concentration, Sclera ([3]; 12 h): 64.38 ± 11.83^a; dexamethasone concentration, Vitreum ([3]; 12 h): 5.34 ± 5.11^a; dexamethasone concentration, Choroidal/retinal compound ([3]; 24 h): 3.71 ± 4.50^a; dexamethasone concentration, Sclera ([3]; 24 h): 22.23 ± 7.44^a; dexamethasone concentration, Vitreum ([3]; 24 h): 1.37 ± 2.14^a; Cmax (in vivo [4]; choroid/retina): 285 ng/g; Tmax (in vivo [4]; choroid/retina): 3 h; Cmax (in vivo [4]; sclera): 403 ng/g; Tmax (in vivo [4]; sclera): 3 h; AUC(0-t) (in vivo [4]; vitreous): 285 ng·h/mL; Cmax (in vivo [4]; vitreous): 43.8 ng/mL; Tmax (in vivo [4]; vitreous): 1 h; dexamethasone concentration, Choroidal/retinal compound ([5]; 1 h): 1881.83 ± 336.98^a; dexamethasone concentration, Sclera ([5]; 1 h): 8604.95 ± 1597.26; dexamethasone concentration, Vitreum ([5]; 1 h): 63.19 ± 15.12; dexamethasone concentration, Choroidal/retinal compound ([5]; 2 h): 3212.63 ± 796.76; dexamethasone concentration, Sclera ([5]; 2 h): 6071.65 ± 737.76; dexamethasone concentration, Vitreum ([5]; 2 h): 80.45 ± 11.10; dexamethasone concentration, Choroidal/retinal compound ([5]; 3 h): 3638.80 ± 580.05; dexamethasone concentration, Sclera ([5]; 3 h): 4419.68 ± 1006.87^a; dexamethasone concentration, Vitreum ([5]; 3 h): 73.77 ± 14.74; dexamethasone concentration, Choroidal/retinal compound ([5]; 4 h): 1701.27 ± 551.90; dexamethasone concentration, Sclera ([5]; 4 h): 2287.56 ± 742.66; dexamethasone concentration, Vitreum ([5]; 4 h): 39.65 ± 8.87; dexamethasone concentration, Choroidal/retinal compound ([5]; 6 h): 1333.65 ± 469.43^a; dexamethasone concentration, Sclera ([5]; 6 h): 1645.75 ± 631.69^a; dexamethasone concentration, Vitreum ([5]; 6 h): 34.53 ± 6.89; dexamethasone concentration, Choroidal/retinal compound ([5]; 8 h): 760.86 ± 177.74; dexamethasone concentration, Sclera ([5]; 8 h): 1031.78 ± 443.14; dexamethasone concentration, Vitreum ([5]; 8 h): 28.29 ± 4.56; dexamethasone concentration, Sclera ([5]; 12 h): 463.21 ± 136.14^a; dexamethasone concentration, Vitreum ([5]; 12 h): 22.68 ± 5.40^a; dexamethasone concentration, Choroidal/retinal compound ([5]; 24 h): 184.59 ± 94.86^a; dexamethasone concentration, Sclera ([5]; 24 h): 237.94 ± 139.25^a; dexamethasone concentration, Vitreum ([5]; 24 h): 3.71 ± 4.31^a

From PMC8241022 (Drug Delivery, 2017)
